This note sets out measurements from ChEMBL document CHEMBL1149922, “Novel tryptophan dioxygenase inhibitors and combined tryptophan dioxygenase/5-HT reuptake inhibitors” (Bioorg Med Chem Lett, 1996).

The target in assay [1] is Tryptophan 2,3-dioxygenase (Rattus norvegicus, UniProt P21643). The assay can be described thus: Compound was tested for inhibition of Tryptophan dioxygenase (TDO) from rat liver.
The species entered for a further assay is Rattus norvegicus. The assay can be described thus: Inhibition of 5-HT reuptake in rat […] was measured. In kind it is functional, organism-based.

What is called Ki is a dissociation constant, usually derived from enzyme kinetics or from competition with a known ligand. High values mean lower affinity, low ones higher affinity. What is called IC50 is the concentration that inhibits the measured activity by half.

Sequence of Tryptophan 2,3-dioxygenase (P21643 whole entry): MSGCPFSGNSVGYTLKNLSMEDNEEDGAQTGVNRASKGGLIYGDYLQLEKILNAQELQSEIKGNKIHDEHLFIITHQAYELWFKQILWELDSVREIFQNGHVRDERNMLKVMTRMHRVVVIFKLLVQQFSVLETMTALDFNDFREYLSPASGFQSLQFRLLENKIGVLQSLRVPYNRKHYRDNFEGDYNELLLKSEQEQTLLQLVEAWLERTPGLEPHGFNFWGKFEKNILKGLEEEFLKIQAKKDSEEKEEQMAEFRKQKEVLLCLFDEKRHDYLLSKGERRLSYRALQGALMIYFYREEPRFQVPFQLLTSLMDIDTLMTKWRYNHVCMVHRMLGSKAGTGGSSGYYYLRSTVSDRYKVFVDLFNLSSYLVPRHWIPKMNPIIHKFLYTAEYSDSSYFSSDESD

The molecule `C(=C\c1c[nH]c2ccccc12)/c1ccncc1` displayed an inhibition constant Ki in assay [1] of 30 nM. This molecule had an IC50 in the assay filed under Rattus norvegicus of 1500 nM.
Consider `Fc1ccc2c(/C=C/c3ccncc3)c[nH]c2c1`, for which, in assay [1], the affinity corresponds to a Ki of 30 nM. This molecule returned an IC50 in the assay listed under Rattus norvegicus of 900 nM.
As for `Fc1ccc2c(/C=C/c3cccnc3)c[nH]c2c1`, in assay [1], the affinity, expressed as Ki, was 30 nM.
`Fc1ccc2[nH]cc(/C=C/c3ccncc3)c2c1` registered an inhibition constant (Ki) in assay [1] of 40 nM.
In assay [1], `C(=C\c1c[nH]c2ccccc12)/c1ccccn1` came in with an inhibitory constant (Ki) of 100 nM.
Regarding `Fc1ccc2[nH]cc(/C=C/c3cccnc3)c2c1`, in assay [1], the Ki came out at 50 nM.
Same read-out and setting: the result for `C(=C\c1c[nH]c2ccccc12)/c1cccnc1` reads 40 nM.
